Where a name gives a salt, the structure may show the parent alone.
What was measured:
Settings in all cases: exposure time: 72 h
E31 [1] = patient-derived glioblastoma stem cells of proneural subtype; test: phenotypic distance (Euclidean, principal components) from DMSO controls (arbitrary units); higher = stronger morphological change
E34 [2] = patient-derived glioblastoma stem cells of proneural subtype; test: as above
E13 [3] = patient-derived glioblastoma stem cells of classical subtype; test: as above
E28 [4] = patient-derived glioblastoma stem cells of classical subtype; test: as above
E21 [5] = patient-derived glioblastoma stem cells of mesenchymal subtype; test: as above
FT3469 [6] = normal neural stem cell line; test: as above
E57 [7] = patient-derived glioblastoma stem cells of mesenchymal subtype; test: as above
E31 [8] = test: surviving fraction (nuclei count normalised to DMSO); higher = more cells surviving (less toxic)
E34 [9] = test: as above
E13 [10] = test: as above
E28 [11] = test: as above
E21 [12] = test: as above
FT3469 [13] = test: as above
E57 [14] = test: as above
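Wherever phenotypic distance (Euclidean, principal components) from DMSO controls is given: cell Painting imaging in 384-well plates, CellProfiler features reduced to at least 20 principal components, Euclidean distance versus same-plate DMSO vehicle wells (0.1% v/v), median over six images per well.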
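Wherever surviving fraction (nuclei count normalised to DMSO) is given: nuclei counted by high-content imaging of Hoechst-stained cells in laminin-coated 384-well plates, relative to 0.1% DMSO vehicle wells, with staurosporine as cell-death control.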

COc1cc([C@@H]2c3cc4c(cc3[C@H](O)[C@H]3COC(=O)[C@H]23)OCO4)cc(OC)c1OC [Podophyllotoxin]
Settings	phenotypic distance	surviving fraction
E13 [3], 4.1 nM	6.81	–
E13 [3], 12.3 nM	7.76	–
E13 [3], 37 nM	6.3	–
E13 [3], 111.1 nM	8.14	–
E13 [3], 333.3 nM	7.56	–
E13 [3], 1000 nM	9.37	–
E13 [3], 3000 nM	9.25	–
E13 [10], 4.1 nM	–	0.153
E13 [10], 12.3 nM	–	0.182
E13 [10], 37 nM	–	0.139
E13 [10], 111.1 nM	–	0.182
E13 [10], 333.3 nM	–	0.123
E13 [10], 1000 nM	–	0.197
E13 [10], 3000 nM	–	0.112
E21 [5], 4.1 nM	8.85	–
E21 [5], 12.3 nM	8.76	–
E21 [5], 37 nM	8.54	–
E21 [5], 111.1 nM	8.65	–
E21 [5], 333.3 nM	8.16	–
E21 [5], 1000 nM	8.89	–
E21 [5], 3000 nM	8.66	–
E21 [12], 4.1 nM	–	0.115
E21 [12], 12.3 nM	–	0.113
E21 [12], 37 nM	–	0.0947
E21 [12], 111.1 nM	–	0.0585
E21 [12], 333.3 nM	–	0.0628
E21 [12], 1000 nM	–	0.0607
E21 [12], 3000 nM	–	0.0362
E28 [4], 4.1 nM	3.02	–
E28 [4], 12.3 nM	3.22	–
E28 [4], 37 nM	4.05	–
E28 [4], 111.1 nM	5.71	–
E28 [4], 333.3 nM	5.89	–
E28 [4], 1000 nM	6.42	–
E28 [4], 3000 nM	6.86	–
E28 [11], 4.1 nM	–	0.354
E28 [11], 12.3 nM	–	0.369
E28 [11], 37 nM	–	0.324
E28 [11], 111.1 nM	–	0.265
E28 [11], 333.3 nM	–	0.22
E28 [11], 1000 nM	–	0.209
E28 [11], 3000 nM	–	0.198
E31 [1], 4.1 nM	5.03	–
E31 [1], 12.3 nM	5.75	–
E31 [1], 37 nM	7.75	–
E31 [1], 111.1 nM	13.3	–
E31 [1], 333.3 nM	11.2	–
E31 [1], 1000 nM	14.3	–
E31 [1], 3000 nM	13.5	–
E31 [8], 4.1 nM	–	0.0505
E31 [8], 12.3 nM	–	0.0728
E31 [8], 37 nM	–	0.0565
E31 [8], 111.1 nM	–	0.0446
E31 [8], 333.3 nM	–	0.0282
E31 [8], 1000 nM	–	0.0371
E31 [8], 3000 nM	–	0.0297
E34 [2], 4.1 nM	4.47	–
E34 [2], 12.3 nM	4.98	–
E34 [2], 37 nM	6.57	–
E34 [2], 111.1 nM	8.02	–
E34 [2], 333.3 nM	7.55	–
E34 [2], 1000 nM	9.53	–
E34 [2], 3000 nM	9.18	–
E34 [9], 4.1 nM	–	0.471
E34 [9], 12.3 nM	–	0.378
E34 [9], 37 nM	–	0.31
E34 [9], 111.1 nM	–	0.339
E34 [9], 333.3 nM	–	0.32
E34 [9], 1000 nM	–	0.329
E34 [9], 3000 nM	–	0.249
E57 [7], 4.1 nM	6.96	–
E57 [7], 12.3 nM	6.65	–
E57 [7], 37 nM	7.38	–
E57 [7], 111.1 nM	5.64	–
E57 [7], 333.3 nM	6.77	–
E57 [7], 1000 nM	7.07	–
E57 [7], 3000 nM	6.6	–
E57 [14], 4.1 nM	–	0.0665
E57 [14], 12.3 nM	–	0.0974
E57 [14], 37 nM	–	0.0586
E57 [14], 111.1 nM	–	0.0625
E57 [14], 333.3 nM	–	0.089
E57 [14], 1000 nM	–	0.0755
E57 [14], 3000 nM	–	0.0653
FT3469 [6], 4.1 nM	4.23	–
FT3469 [6], 12.3 nM	5.67	–
FT3469 [6], 37 nM	4.76	–
FT3469 [6], 111.1 nM	6.26	–
FT3469 [6], 333.3 nM	5.78	–
FT3469 [6], 1000 nM	5.4	–
FT3469 [6], 3000 nM	6.63	–
FT3469 [13], 4.1 nM	–	0.517
FT3469 [13], 12.3 nM	–	0.541
FT3469 [13], 37 nM	–	0.375
FT3469 [13], 111.1 nM	–	0.377
FT3469 [13], 333.3 nM	–	0.433
FT3469 [13], 1000 nM	–	0.416
FT3469 [13], 3000 nM	–	0.379

COc1cc2nc(N3CCN(C(=O)c4ccco4)CC3)nc(N)c2cc1OC [Prazosin hydrochloride]
Settings	phenotypic distance	surviving fraction
E13 [3], 4.11523 nM	0.601	–
E13 [3], 12.34567901 nM	3.49	–
E13 [3], 37.037 nM	2.1	–
E13 [3], 111.1111111 nM	0.55	–
E13 [3], 333.333 nM	0.666	–
E13 [3], 1000 nM	0.512	–
E13 [3], 3000 nM	2.04	–
E13 [10], 4.11523 nM	–	1.11
E13 [10], 12.34567901 nM	–	0.996
E13 [10], 37.037 nM	–	1.07
E13 [10], 111.1111111 nM	–	0.955
E13 [10], 333.333 nM	–	1.04
E13 [10], 1000 nM	–	1.03
E13 [10], 3000 nM	–	0.815
E21 [5], 4.11523 nM	0.712	–
E21 [5], 12.34567901 nM	0.547	–
E21 [5], 37.037 nM	0.834	–
E21 [5], 111.1111111 nM	0.524	–
E21 [5], 333.333 nM	0.736	–
E21 [5], 1000 nM	0.384	–
E21 [5], 3000 nM	0.699	–
E21 [12], 4.11523 nM	–	1.03
E21 [12], 12.34567901 nM	–	1.03
E21 [12], 37.037 nM	–	1
E21 [12], 111.1111111 nM	–	1.04
E21 [12], 333.333 nM	–	1.11
E21 [12], 1000 nM	–	0.938
E21 [12], 3000 nM	–	0.912
E28 [4], 4.11523 nM	0.643	–
E28 [4], 12.34567901 nM	0.664	–
E28 [4], 37.037 nM	1.1	–
E28 [4], 111.1111111 nM	0.589	–
E28 [4], 333.333 nM	0.766	–
E28 [4], 1000 nM	1.03	–
E28 [4], 3000 nM	0.426	–
E28 [11], 4.11523 nM	–	1.07
E28 [11], 12.34567901 nM	–	0.881
E28 [11], 37.037 nM	–	1.17
E28 [11], 111.1111111 nM	–	0.956
E28 [11], 333.333 nM	–	1.2
E28 [11], 1000 nM	–	0.907
E28 [11], 3000 nM	–	0.976
E31 [1], 4.11523 nM	0.642	–
E31 [1], 12.34567901 nM	0.488	–
E31 [1], 37.037 nM	0.739	–
E31 [1], 111.1111111 nM	0.653	–
E31 [1], 333.333 nM	0.984	–
E31 [1], 1000 nM	0.431	–
E31 [1], 3000 nM	0.892	–
E31 [8], 4.11523 nM	–	0.988
E31 [8], 12.34567901 nM	–	1.19
E31 [8], 37.037 nM	–	1.13
E31 [8], 111.1111111 nM	–	1.03
E31 [8], 333.333 nM	–	1.04
E31 [8], 1000 nM	–	1.07
E31 [8], 3000 nM	–	1
E34 [2], 4.11523 nM	0.522	–
E34 [2], 12.34567901 nM	0.593	–
E34 [2], 37.037 nM	0.611	–
E34 [2], 111.1111111 nM	0.647	–
E34 [2], 333.333 nM	0.638	–
E34 [2], 1000 nM	0.628	–
E34 [2], 3000 nM	0.776	–
E34 [9], 4.11523 nM	–	1.04
E34 [9], 12.34567901 nM	–	0.994
E34 [9], 37.037 nM	–	1.14
E34 [9], 111.1111111 nM	–	0.986
E34 [9], 333.333 nM	–	1.11
E34 [9], 1000 nM	–	0.837
E34 [9], 3000 nM	–	1.04
E57 [7], 4.11523 nM	0.592	–
E57 [7], 12.34567901 nM	0.576	–
E57 [7], 37.037 nM	0.642	–
E57 [7], 111.1111111 nM	0.745	–
E57 [7], 333.333 nM	0.475	–
E57 [7], 1000 nM	0.697	–
E57 [7], 3000 nM	0.95	–
E57 [14], 4.11523 nM	–	1.07
E57 [14], 12.34567901 nM	–	1.02
E57 [14], 37.037 nM	–	1.09
E57 [14], 111.1111111 nM	–	0.961
E57 [14], 333.333 nM	–	1
E57 [14], 1000 nM	–	0.915
E57 [14], 3000 nM	–	0.97
FT3469 [6], 4.11523 nM	0.634	–
FT3469 [6], 12.34567901 nM	0.798	–
FT3469 [6], 37.037 nM	0.909	–
FT3469 [6], 111.1111111 nM	0.541	–
FT3469 [6], 333.333 nM	0.436	–
FT3469 [6], 1000 nM	0.748	–
FT3469 [6], 3000 nM	0.762	–
FT3469 [13], 4.11523 nM	–	1
FT3469 [13], 12.34567901 nM	–	1.14
FT3469 [13], 37.037 nM	–	1.03
FT3469 [13], 111.1111111 nM	–	1.05
FT3469 [13], 333.333 nM	–	1.14
FT3469 [13], 1000 nM	–	1.12
FT3469 [13], 3000 nM	–	1.06
